Experimental findings from PubChem BioAssay (NCI) are described below.

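Each compound was tested at five concentrations against cells in 96-well plates for 48 hours. TGI is the concentration that stops growth completely.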 Where only a bound is given, the exact number is not on record here.

Test in all cases: growth of human tumour cells (NCI), 48 h
Test [1] concerns SNB-19 CNS.
Test [2] deals with CAKI-1 renal.
Test [3] has as its system HCC-2998 colon.
Test [4] relates to TK-10 renal.
Test [5] relates to KM12 colon.
The test system of test [6] is SK-MEL-5 melanoma.
Test [7] deals with SF-295 CNS.
Test [8] concerns SK-MEL-28 melanoma.
Test [9] relates to HL-60(TB) leukemia.
Test [10] relates to CCRF-CEM leukemia.
Test [11] relates to A549 NSCLC.
Test [12] relates to NCI-H226 lung.
Test [13] concerns NCI-H460 lung.
The subject of test [14] is A498 renal.
In test [15] the test system is OVCAR-4 ovarian.

`O=c1cc(-c2ccccc2)oc2cc(OCCSCCCCCCCCCCSCCOc3ccc4c(=O)cc(-c5ccccc5)oc4c3)ccc12`: the TGI in test [1], in test [2], in [3], in test [4], in [5] and in test [6] was more than 100 µM each time. Besides, the TGI in test [7], in test [8], in test [9], in [10] and in test [11] was more than 100 µM in each case.
For the compound `[N-]=[N+]=NC(CBr)c1cn([C@H]2C[C@H](O)[C@@H](CO)O2)c(=O)[nH]c1=O` (stereo not given in full), the TGI in [1], in test [2], in [12], in test [3], in test [4] and in test [5] was more than 100 µM each time. For the same compound, the TGI in test [6], in [7], in [8], in [9], in [13] and in test [10] was more than 100 µM in each case. Moreover, the TGI in test [11] is more than 100 µM.
As to `O=C(O)Cn1c(=O)[nH]c(=O)c2c1ncn2Cc1ccccc1`, the TGI in [1], in test [2], in test [12], in test [4], in test [5] and in [14] was more than 100 µM each time. Moreover, the TGI in test [6], in [8], in [13], in test [10] and in [11] was more than 100 µM in each case.
For `CSc1nc2[nH]c(=O)c(C)nc2c(=O)[nH]1`, the TGI in test [1], in test [2], in test [3], in test [4], in test [5] and in test [14] was more than 100 µM throughout. For the same compound, the TGI in test [6], in test [7], in test [8], in test [9], in test [13] and in test [10] was more than 100 µM in each case. Moreover, the TGI in test [11] and in [15] was more than 100 µM each time.
For the compound `COc1ccc(/C(=N/NC(N)=O)C(c2ccc(OC)cc2)C2C(=O)Oc3ccccc32)cc1` (stereo not given), the TGI in test [1], in test [2], in test [12], in test [3], in test [5] and in test [6] was more than 100 µM each time. Moreover, the TGI in [7], in [8], in test [9], in test [13], in [10] and in test [11] was more than 100 µM each time. In [15], this compound showed a TGI of more than 100 µM.
Take `CC(=O)NNc1nc(C)c(C(/C=C/c2ccc(Cl)cc2)=N/NC(=O)C[N+](C)(C)C)s1`: the TGI in test [1], in [2], in test [12], in test [3], in test [4] and in [5] was more than 100 µM throughout. Also, the TGI in [14], in [6], in test [7], in [8], in [9] and in test [13] was more than 100 µM in each case. The TGI in test [10], in test [11] and in [15] was more than 100 µM each time.
Consider `O=C1CC(=O)N(CCc2ccccc2)S(=O)(=O)N1CCc1ccccc1`, for which the TGI in test [1] was 87.4 µM; in test [2] it was 51.4 µM; in [3], more than 100 µM; in test [4], more than 100 µM; in [5], 39.5 µM; in [14], 34.2 µM. For the same compound, the TGI in [6] was 44.2 µM; in test [7] it was 35.4 µM; in [8], more than 100 µM; in test [9] it was 38.3 µM; in test [13], more than 100 µM; in [10] it was 35 µM. In addition, the TGI in test [11] was 64.8 µM; in test [15] it was 44.6 µM.
Regarding `CN(C)c1ccc(/C=N\N2C(=O)c3ccccc3C2=O)cc1`, the TGI in test [1], in test [2], in test [12], in test [3], in test [4] and in [5] was more than 100 µM in each case. Moreover, the TGI in test [14], in test [6], in test [7], in test [8], in test [9] and in [13] was more than 100 µM throughout. Besides, the TGI in [10], in test [11] and in test [15] was more than 100 µM throughout.
`O=c1cc(-c2ccc(Cl)cc2)oc2cc(OCCCOc3ccc4c(=O)cc(-c5ccc(Cl)cc5)oc4c3)ccc12`: the TGI in test [1], in test [2], in test [12], in test [3], in test [4] and in test [5] was more than 100 µM in each case. The TGI in [6], in test [7], in test [8], in [9], in test [13] and in test [10] was more than 100 µM in each case. In addition, the TGI in test [11] and in test [15] was more than 100 µM throughout.
`Cc1ccc(O)c(C(=O)CCCC(=O)c2cc(C)ccc2O)c1`: the TGI in [1], in test [2], in test [12], in [3], in [4] and in [5] was more than 100 µM in each case. Besides, the TGI in test [14], in [6], in test [7], in test [8], in [9] and in test [13] was more than 100 µM throughout. The TGI in test [10] and in test [15] was more than 100 µM throughout.
As for `Cn1ncnc1CCc1ccccc1`, the TGI in test [2], in test [12], in test [4], in [5], in test [14] and in test [6] was more than 100 µM in each case. In addition, the TGI in test [7], in test [8], in test [9], in test [13], in [10] and in [11] was more than 100 µM throughout. In test [15], this compound showed a TGI of more than 100 µM.
In the case of `COC(=O)C(Cc1nc2ccc(Cl)cc2[nH]c1=O)/C(=N/NC(N)=O)C(=O)Nc1ccc(Cl)cc1` (stereo not given), the TGI in test [1], in test [2], in test [12], in test [3], in [4] and in [5] was more than 100 µM in each case. Moreover, the TGI in test [14], in test [6], in test [7], in test [8], in test [9] and in test [13] was more than 100 µM each time. The TGI in [10], in test [11] and in test [15] was more than 100 µM each time.
With `Cc1nc(Nc2ccc([N+](=O)[O-])cc2)sc1C(/C=C/c1ccc(N(C)C)cc1)=N/NC(=O)c1ccccc1`, the TGI in test [1], in test [2], in [12], in test [3], in [4] and in [5] was more than 100 µM each time. Besides, the TGI in test [7], in test [8], in test [9], in test [13], in test [10] and in test [11] was more than 100 µM in each case. This compound registered a TGI in [15] of more than 100 µM.
For `N#CC1(C=O)c2ccccc2C=CN1C(=O)c1ccccc1` (stereo not given), the TGI in test [1], in test [2], in [12], in test [3], in test [4] and in test [5] was more than 100 µM throughout. Also, the TGI in test [14] was more than 100 µM; in test [6], 47.3 µM; in test [8], more than 100 µM; in test [9], 45.9 µM; in [13], more than 100 µM; in test [10], 78.4 µM. Also, the TGI in test [11] and in [15] was more than 100 µM throughout.
In the case of `COC(=O)c1ccc(Cc2ccc(C(=O)OC)o2)o1`, the TGI in test [1], in test [2], in test [12], in test [3], in test [4] and in test [5] was more than 378 µM in each case. Also, the TGI in [6], in test [7], in test [8], in test [9], in test [13] and in test [10] was more than 378 µM throughout. The same compound showed a TGI in test [11] of more than 378 µM.
For the compound `COc1ccc(CNc2nc3c(NC(C)=O)cc(C(F)(F)F)cc3nc2-c2ccccc2)cc1OC`, the TGI in test [1], in test [2], in [3], in [4], in [5] and in test [14] was more than 100 µM each time. For the same compound, the TGI in [6], in test [7], in [8], in test [9], in [13] and in [10] was more than 100 µM in each case. Further, the values for the TGI in test [11] and in test [15] were more than 100 µM and 95.7 µM, respectively.
For `COc1cc2c(cc1OC)C(=O)C(C1=C(SC(=N)N)C(=O)c3cc(OC)c(OC)cc31)C2` (stereo not given), the TGI in test [1], in test [2], in test [12], in test [3], in test [5] and in [6] was more than 100 µM each time. The TGI in [7], in test [8], in test [13], in test [10], in [11] and in [15] was more than 100 µM each time.
As for `COc1cc(/C=C2/C(=O)N(C(=O)c3ccc(Cl)cc3)N=C2C)cc(OC)c1OC`, the TGI in test [1], in [2], in test [3], in [4], in test [5] and in test [14] was more than 100 µM in each case. Further, the TGI in test [6], in test [7], in test [8], in [9], in test [13] and in [10] was more than 100 µM in each case. Also, the TGI in test [11] and in [15] was more than 100 µM in each case.
Take `CC(C)C(/C=C/c1ccc(Br)cc1)=N\NC(N)=O`: the TGI in [1] was more than 100 µM; in test [2], more than 100 µM; in [12], more than 100 µM; in [3], 25.7 µM; in test [4], more than 100 µM; in test [5], more than 100 µM. In addition, the TGI in [6], in [7], in test [8], in [9], in [13] and in test [10] was more than 100 µM in each case. For the same compound, the TGI in test [11] and in test [15] was more than 100 µM each time.
Turning to `COCCOCC(=O)N(CCn1ccc(NC(c2ccccc2)(c2ccccc2)c2ccccc2)nc1=O)CCn1cnc2nc(N)[nH]c(=O)c21`, the TGI in test [2], in [12], in test [3], in test [4], in test [5] and in test [14] was more than 100 µM throughout. In addition, the TGI in test [6], in test [7], in [8], in test [9], in [13] and in test [10] was more than 100 µM throughout. For the same compound, the TGI in test [11] and in [15] was more than 100 µM in each case.
